Read-outs that look alike come from different tables or passages of the source.
What was measured:
[1] = test system: L. donovani IRFP intramacrophagic amastigotes; test: Dose-response assay on ex vivo infected splenic explants (intramacrophagic amastigotes); format: cell-based, Leishmania donovani; conditions: Leishmania donovani, Splenocyte, read-out: EC50 Intramacrophagic Amastigotes
[2] = test system: L. donovani IRFP axenic amastigotes; test: Dose-response assay on axenic amastigotes; format: cell-based, Leishmania donovani; conditions: Leishmania donovani
Procedure: The objective of the present study was to identify new antileishmanial drug candidates by screening a commercial library of plant-derived alkaloids using a platform based on axenic amastigotes of L. donovani IRFP—the causative agent of VL—genetically modified to emit infrared fluorescence during their viable stage (hereafter referred to as L. donovani IRFP). To this end, single-dose assays at 10 μM and 1 μM, as well as dose–response assays, were performed. Compounds showing significant activity in the initial screening were subsequently clustered according to chemical structure using the DataWarrior tool, and representative compounds were further evaluated in dose response assays against axenic amastigotes.
Female Balb/c mice aged from 6 to 8 weeks were intraperitoneally inoculated with 1.5 × 10^9 infective L. donovani IRFP metacyclic promastigotes. Between 8 and 12 weeks after infection, mice were humanely euthanised and bone marrow was collected from the femurs and tibias of both hind limbs. The bones were cut at both ends, and prewarmed PBS was flushed through the medullary cavity using a syringe fitted with a 27G needle, to extract the bone marrow cells. The resulting cell suspension was filtered through a 100 µm cell strainer and centrifuged at 2500 rpm for 10 min at room temperature. To obtain free amastigotes, the pelleted cells were resuspended within a 75 mL ventilated flask in amastigote culture medium (15 mM KCl; 136 mM KH2PO4; 10 mM K2HPO4.3H2O; 0.5 mM MgSO4.7 H2O; 24 mM NaHCO3; 22 mM glucose; 1 mM glutamine, 1x RPMI 1640 vitamin mix (Sigma-Aldrich, Merck, Darmstadt, Germany), 10 mM folic acid, […], 1x RPMI amino acid mix (Sigma-Aldrich, Merck, Darmstadt, Germany), […], antibiotic mixture, 25 mM MES, 10% FBS (Gibco, ThermoFisher Scientific, Waltham, MA, USA) and incubated at 37 °C in a humidified atmosphere containing 5% CO2 [46].
The efficacy of the selected compounds was assessed by measuring near-infrared fluorescence (700 nm) using an Odyssey Infrared Imaging System (Li-Cor, Lincoln, NE, USA) following the previously described protocols.

[3] = test system: L. donovani IRFP axenic amastigotes; test: Primary single-concentration screening on axenic amastigotes, growth inhibition at 72 h; format: cell-based, Leishmania donovani; conditions: for inhibition at 1 µM / inhibition at 10 µM: Leishmania donovani
[4] = Cytotoxicity in HepG2 cells (alamarBlue, 72 h); conditions: human
Procedure: (§1) To this end, we calculated SIs from 16 preselected results from the ex vivo system. With this aim, dose–response curves were performed in duplicate across at least three independent experiments using RAW 264.7 mouse macrophages (as a model of host cells harboring amastigotes) and HepG2 (as a model for assessing systemic toxicity).
(§2) To evaluate the safety of the selected compounds, two cell lines were employed: RAW 264.7 (a mouse macrophage-derived cell line) and HepG2 (a human hepatoma cell line). Furthermore, to determine the intestinal tolerance relevant to potential oral administration, mouse intestinal organoids were prepared.
(§3) RAW 264.7 and HepG2 were routinely cultured under standard conditions. RAW 264.7 cells were maintained in RPMI medium (Gibco) supplemented with, 25 mM HEPES, 24 mM NaHCO3, 2 mM L-glutamine, mixture of antibiotics and 10% FBS. HepG2 cells were cultured in DMEM/F-12 (Gibco) and supplemented 10% of FBS. For cytotoxicity assays, 10,000 cells per well were seeded into 96-well plates and incubated overnight at 37 °C with 5% of CO2. Subsequently, 2-fold serial dilutions of the compounds were added and incubated for 72 h. Cell viability using the alamarBlue™ assay according to the manufacturer’s instructions, and fluorescence was measured with a Varioskan™ LUX microplate reader (ThermoFisher Scientific, Waltham, MA, USA). Non-linear regression analyses were performed using SigmaPlot^TM software (version 10.0) to calculate CC50. Data were obtained from at least three independent experiments performed in duplicate.

[5] = Cytotoxicity in RAW 264.7 cells (alamarBlue, 72 h); conditions: mouse
Procedure: as §1, §2, §3

[6] = 1 µM, experiment 1, 72 h, axenic amastigotes, read-out: Growth Inhibition (%) at 72h, 1 µM_Exp1
[7] = 1 µM, experiment 2, 72 h, axenic amastigotes, read-out: Growth Inhibition (%) at 72h, 1 µM_Exp2
[8] = 10 µM, experiment 1, 72 h, axenic amastigotes, read-out: Growth Inhibition (%) at 72h, 10 µM_Exp1
[9] = 10 µM, experiment 2, 72 h, axenic amastigotes, read-out: Growth Inhibition (%) at 72h, 10 µM_Exp2
[10] = primary cultures of infected mouse splenocytes
[11] = 1 µM, experiment 1, 72 h, axenic amastigotes
[12] = 1 µM, experiment 2, 72 h, axenic amastigotes
[13] = 10 µM, experiment 1, 72 h, axenic amastigotes
[14] = 10 µM, experiment 2, 72 h, axenic amastigotes

Row | Molecule | inhibition at 1 µM [3, 6] | inhibition at 1 µM [3, 7] | inhibition at 10 µM [3, 8] | inhibition at 10 µM [3, 9] | Growth Inhibition (%) at 72h, 1 µM_Exp1 [3, 11] | Growth Inhibition (%) at 72h, 1 µM_Exp2 [3, 12] | Growth Inhibition (%) at 72h, 10 µM_Exp1 [3, 13] | Growth Inhibition (%) at 72h, 10 µM_Exp2 [3, 14] | other results
1 | CN1Cc2c(ccc3c2OCO3)-c2ccc3cc4c(cc3c21)OCO4 [Dihydrosanguinarine] | 99.3% | 97.6% | 99.8% | 99.7% | – | – | – | – | EC50 ([1]; in Mus musculus): 8.55 ± 1.33 µM; IC50 [2]: 0.19 ± 0.01 µM; CC50 at 72 h [4]: > 40 µM; CC50 at 72 h [5]: 46.5 ± 10.1 µM
2 | COc1ccc2c(c1OC)CN(C)c1c-2ccc2cc3c(cc12)OCO3 [Dihydrochelerythrine] | 100% | 97.9% | 100% | 100% | – | – | – | – | EC50 [1, 10]: 10.5 ± 0.75 µM; IC50 [2]: 0.06 ± 0.005 µM; CC50 at 72 h ([4]; HepG2 hepatoma cells): > 50 µM; CC50 at 72 h ([5]; RAW 264.7 macrophage cells): > 50 µM
3 | CC[C@@H]1[C@H]2CCCCN3[C@H]2[C@H](C[C@H]3[C@@H]2C[C@H](C)C(=O)O2)[C@@H]2[C@H]1OC(=O)[C@H]2C [Tuberostemonine] | 63.6% | 53% | 102% | 101% | – | – | – | – | EC50 [1, 10]: > 50 µM; IC50 [2]: 2.06 ± 0.11 µM; CC50 at 72 h [4]: > 40 µM; CC50 at 72 h [5]: 50 ± 5.51 µM
4 | CC[C@@H]1[C@H]2CCCCN3[C@H]2[C@@H](C[C@H]3[C@@H]2C[C@H](C)C(=O)O2)[C@H]2[C@@H]1OC(=O)[C@H]2C [Neotuberostemonine] | 38% | 69.7% | 101% | 101% | – | – | – | – | EC50 [1, 10]: > 25 µM; IC50 [2]: 1.27 ± 0.06 µM; CC50 at 72 h [4]: > 50 µM; CC50 at 72 h [5]: 39.1 ± 2.2 µM
5 | Br.CN1[C@H]2C[C@H](OC(=O)[C@H](CO)c3ccccc3)C[C@@H]1[C@@H](O)C2 [Anisodamine (hydrobromide)] | – | – | – | – | -15.73% | 4.55% | 80.63% | 11.58% | –
6 | COc1cc2c(cc1OC)-c1c(C)c3ccc(OC)c(OC)c3c[n+]1CC2.[OH-] [Dehydrocorydaline (hydroxyl)] | – | – | – | – | 10.19% | -0.13% | 92.43% | 77.86% | –
7 | COC(=O)C[C@](O)(CCCC(C)(C)O)C(=O)O[C@@H]1C(OC)=C[C@]23CCCN2CCc2cc4c(cc2[C@H]13)OCO4 [Homoharringtonine] | 4.68% | -119% | 89.9% | 91.5% | – | – | – | – | –
8 | O=C(CC1NCCCC1O)Cn1cnc2cc(Br)c(Cl)cc2c1=O (stereo not drawn) [Halofuginone] | 93.7% | 90.9% | 97.7% | 98.2% | – | – | – | – | –
9 | CC[C@]12C=CCN3CC[C@]4(C(=C(C(=O)OC)C1)Nc1ccccc14)[C@@H]32 [Tabersonine] | -26.2% | -7.79% | 98% | 61.5% | – | – | – | – | –
10 | COc1cc(/C=C/C(=O)N2CCC=CC2=O)cc(OC)c1OC [Piperlongumine] | – | – | – | – | 99.95% | 98.63% | 100.21% | 100.05% | –
11 | COc1cc(CNC(=O)CCCCCC(C)C)ccc1O [Nordihydrocapsaicin] | – | – | – | – | – | – | – | – | Growth Inhibition (%) at 72h, 1 µM_Exp1 [3]: 1.91%; Growth Inhibition (%) at 72h, 1 µM_Exp2 [3]: -21.65%; Growth Inhibition (%) at 72h, 10 µM_Exp1 [3]: 90.15%; Growth Inhibition (%) at 72h, 10 µM_Exp2 [3]: 70.24%
12 | Evodiamine | – | – | – | – | -42.64% | 25.77% | 94.67% | 96.80% | –
13 | CC[C@H]1CN2CCc3cc(OC)c(OC)cc3[C@@H]2C[C@@H]1C[C@H]1NCCc2cc(O)c(OC)cc21.Cl.Cl [Cephaeline (dihydrochloride)] | – | – | – | – | -15.97% | -74.54% | 96.96% | 92.99% | –
14 | c1ccc2c(Cc3c[nH]c4ccccc34)c[nH]c2c1 [3,3'-Diindolylmethane] | -59.5% | -44.6% | 100% | 95.7% | – | – | – | – | –
15 | C[C@@H]1CC[C@@]2(NC1)O[C@H]1C[C@H]3[C@@H]4CC=C5C[C@@H](O[C@@H]6O[C@H](CO)[C@@H](O[C@@H]7O[C@@H](C)[C@H](O)[C@@H](O)[C@H]7O)[C@H](O)[C@H]6O[C@@H]6O[C@@H](C)[C@H](O)[C@@H](O)[C@H]6O)CC[C@]5(C)[C@H]4CC[C@]3(C)[C@H]1[C@@H]2C [Solamargine] | 62.8% | 11.2% | 93.6% | 94.3% | – | – | – | – | –
16 | Cc1c2ccncc2c(C)c2c1[nH]c1ccccc12.Cl [Ellipticine (hydrochloride)] | – | – | – | – | 36.30% | -10.32% | 98.68% | 97.67% | –
17 | CC[C@@]1(O)C(=O)OCc2c1cc1n(c2=O)Cc2cc3c(OC)cccc3nc2-1 [9-Methoxycamptothecin] | – | – | – | – | 64.49% | 73.97% | 96.02% | 94.80% | –
18 | c1ccc2c(Cc3[nH]c4ccccc4c3Cc3c[nH]c4ccccc34)c[nH]c2c1 [2,3-Bis(3-indolylmethyl) indole] | -5.15% | 13.6% | 101% | 100% | – | – | – | – | –
19 | CC/C=C\C/C=C\C/C=C\CCCCCCCC(=O)NCc1ccccc1 [N-Benzyllinolenamide] | – | – | – | – | -37.93% | -43.83% | 99.95% | 100.85% | –
20 | CN1c2ccccc2C(=O)N2CCc3c([nH]c4ccccc34)[C@@H]21 (racemic) [(±)-Evodiamine] | – | – | – | – | 64.72% | 40.81% | 100.52% | 97.39% | –
21 | C[C@H]1CC[C@]2(NC1)O[C@H]1C[C@H]3[C@@H]4CC[C@H]5C[C@@H](O)CC[C@]5(C)[C@H]4CC[C@]3(C)[C@H]1[C@@H]2C [Tomatidine] | 11.2% | 18.6% | 66.9% | 75.1% | – | – | – | – | –
22 | CC[C@]1(O)C[C@@H]2CN(CCc3c([nH]c4ccccc34)[C@@](C(=O)OC)(c3cc4c(cc3OC)N(C)[C@H]3[C@@](O)(C(=O)OC)[C@H](OC(C)=O)[C@]5(CC)C=CCN6CC[C@]43[C@@H]65)C2)C1.O=S(=O)(O)O [Vinblastine (sulfate)] | – | – | – | – | -20.42% | -25.23% | 99.34% | 78.77% | –
23 | CC[C@@]1(O)C(=O)OCc2c1cc1n(c2=O)Cc2cc3ccccc3nc2-1 [Camptothecin] | 66.4% | 89.3% | 91% | 95.9% | – | – | – | – | –

Reference: publication PMC12608155, “Discovery of Potential Antileishmanial Compounds Through Phenotypic Screening of an Alkaloid Library” (Molecules, 2025)
